# Test system: pilocarpine induced-seizures
# Test: Pilocarpine induced-seizure (PIS) model
# Type: in vivo
# Settings: uracils in the Pilocarpine model; scale maximum = 4
# Experimental: Pilocarpine Induced-seizure (PIS) Model
# All test compounds are normally dissolved in a mixture of saline (NaCl 0.9% by mass) and 10% DMSO. However, in case of solubility problems, the concentration of DMSO may be increased to a maximum of 50%. This biological test is performed following the procedure disclosed in PCT publication WO 98/40055 (Queen's University at Kingston).
row,Structure (SMILES),Relative Activity (Maximum = 4)
1,"NN1C(=O)CCN(Cc2ccccc2)C1=O [Compound P38, 3-amino-1-benzyl-dihydro-pyrimidine-2,4-dione]",Active +2
2,"O=c1[nH]c(=O)n(Cc2ccccc2)cc1I [Compound P32, 1-benzyl-5-iodo-1H-pyrimidine-2,4-dione]",Active +1
3,"CC(C)n1cc(Br)c(=O)[nH]c1=O [Compound P21, 5-bromo-1-isopropyl-1H-pyrimidine-2,4-dione]",Active - +1
4,"Cn1ccc(=O)[nH]c1=O [Compound P34, 1-methyl-1H-pyrimidine-2,4-dione]",Minimally Active
5,"NC(=O)c1cnn(-c2cccc(N)c2)c1 [Compound P42, 1-(3-amino-phenyl)-1H-pyrazole-4-carboxylic acid amide]",Active +2
6,O=c1c(Cc2cn(Cc3ccccc3)c(=O)n(Cc3ccccc3)c2=O)cn(Cc2ccccc2)c(=O)n1Cc1ccccc1 [Compound P43],Active +3
7,"O=C(O)c1c[nH]c(=O)[nH]c1=O [Compound P12, 2,4-dioxo-1,2,3,4-tetrahydro-pyrimidine-5-carboxylic acid]",Active - +2
8,"Cc1[nH]c(=O)[nH]c(=O)c1[N+](=O)[O-] [Compound P9, 6-methyl-5-nitro-1H-pyrimidine-2,4-dione]",Active - +2
9,"Cc1cc(=O)n(Cc2ccc([N+](=O)[O-])cc2)c(=O)n1Cc1ccc([N+](=O)[O-])cc1 [Compound P33, 6-methyl-1,3-bis-(4-nitro-benzyl)-1H-pyrimidine-2,4-dione]",Active +2
10,"O=c1ccn(Cc2ccccc2)c(=O)[nH]1 [Compound P26, 1-benzyl-1H-pyrimidine-2,4-dione]",Active - +2
11,"O=c1c(Br)cn(Cc2ccc([N+](=O)[O-])cc2)c(=O)n1Cc1ccc([N+](=O)[O-])cc1 [Compound P25, 5-bromo-1,3-bis-(4-nitro-benzyl)-1H-pyrimidine-2,4-dione]",Active - +2
12,"CC1CC(=O)N(N)C(=O)N1Cc1ccccc1 (stereo not drawn) [Compound P39, 3-amino-1-benzyl-6-methyl-dihydro-pyrimidine-2,4-dione]",Active +3
13,"Cc1cc(=O)[nH]c(=O)n1Cc1ccccc1 [Compound P27, 1-benzyl-6-methyl-1H-pyrimidine-2,4-dione]",Active - +2
14,"O=c1cc[nH]c(=O)[nH]1 [Compound P1, 1H-pyrimidine-2,4-dione]",Active - +2
15,"CC(C)n1ccc(=O)n(C(C)C)c1=O [Compound P36, 1,3-diisopropyl-1H-pyrimidine-2,4-dione]",Active +2
16,"Nc1c(C(=O)O)[nH]c(=O)[nH]c1=O [Compound P10, 5-amino-2,6-dioxo-1,2,3,6-tetrahydro-pyrimidine-4-carboxylic acid]",Minimally Active
17,"Cc1[nH]c(=O)[nH]c(=O)c1Br [Compound P8, 5-bromo-6-methyl-1H-pyrimidine-2,4-dione]",Active - +2
18,"O=c1[nH]cc(O)c(=O)[nH]1 [Compound P4, 5-hydroxy-1H-pyrimidine-2,4-dione]",Active - +2

row,Structure (SMILES),Relative Activity (Maximum = 4)
1,"O=c1c(Br)cn(CC2CCCCC2)c(=O)n1CC1CCCCC1 [Compound P24, 5-bromo-1,3-bis-cyclohexylmethyl-1H-pyrimidine-2,4-dione]",Minimally Active
2,"Cc1c[nH]c(=O)[nH]c1=O [Compound P2, 5-methyl-1H-pyrimidine-2,4-dione]",Active - +2
3,"Cn1ccc(=O)n(C)c1=O [Compound P35, 1,3-dimethyl-1H-pyrimidine-2,4-dione]",Active +3
4,"Cn1cc([N+](=O)[O-])c(=O)n(C)c1=O [Compound P13, 1,3-dimethyl-5-nitro-1H-pyrimidine-2,4-dione]",Minimally Active
5,"CCC(C)n1cc(Br)c(=O)[nH]c1=O (stereo not drawn) [Compound P20, 5-bromo-1-sec-butyl-1H-pyrimidine-2,4-dione]",Active - +1
6,"O=c1[nH]cc(I)c(=O)[nH]1 [Compound P6, 5-iodo-1H-pyrimidine-2,4-dione]",Active - +1
7,"Cc1[nH]c(=O)[nH]c(=O)c1C [Compound P14, 5,6-dimethyl-1H-pyrimidine-2,4-dione]",Active - +2
8,"O=c1[nH]cc(Br)c(=O)[nH]1 [Compound P5, 5-bromo-1H-pyrimidine-2,4-dione]",Active - +1
9,"CCCCC#Cc1c[nH]c(=O)[nH]c1=O [Compound P18, 5-hex-1-ynyl-1H-pyrimidine-2,4-dione]",Active - +1
10,"O=C(O)c1cc(=O)[nH]c(=O)[nH]1 [Compound P11, 2,6-dioxo-1,2,3,6-tetrahydro-pyrimidine-4-carboxylic acid]",Active - +2
11,"O=c1[nH]cc(CO)c(=O)[nH]1 [Compound P3, 5-hydroxymethyl-1H-pyrimidine-2,4-dione]",Active - +3
12,"CCCCc1cc2c[nH]c(=O)nc2o1 [Compound P17, 6-butyl-3H-furo[2,3-d]pyrimidin-2-one]",Active - +1
13,"O=c1[nH]c(=O)n(Cc2ccccc2)cc1Br [Compound P22, 1-benzyl-5-bromo-1H-pyrimidine-2,4-dione]",Active - +1
14,"O=c1ccn(CCCO)c(=O)n1CCCO [Compound P37, 1,3-bis-(3-hydroxy-propyl)-1H-pyrimidine-2,4-dione]",Active +2
15,"Cc1cn(C2CC(O)C(CO)O2)c(=O)[nH]c1=O (stereo not drawn) [Compound P19, 1-(4-hydroxy-5-hydroxymethyl-tetrahydro-furan-2-yl)-5-methyl-1H-pyrimidine-2,4-dione]",Minimally Active
16,"Cc1cc(=O)[nH]c(=O)[nH]1 [Compound P7, 6-methyl-1H-pyrimidine-2,4-dione]",Active - +3
17,"O=c1[nH]c(=O)n(CC2CCCCC2)cc1Br [Compound P23, 5-bromo-1-cyclohexylmethyl-1H-pyrimidine-2,4-dione]",Minimally Active
18,"CSCc1c[nH]c(=O)[nH]c1=O [Compound P31, 5-methylsulfanylmethyl-1H-pyrimidine-2,4-dione]",Minimally Active
